# Patent publication US20230135136A1, “FGFR TYROSINE KINASE INHIBITORS AND ANTI-PDI AGENTS FOR THE TREATMENT OF UROTHELIAL CARCINOMA” (Janssen Pharmaceutica NV, priority 2020, published 2023)
# Like-named read-outs stand apart in the source and are kept apart here.
# Legend:
# [1] = tested on: CD38+ T cells in the peripheral blood; experiment: Phase 1b: flow cytometry immune cell profiling of blood, T cell activation (CD38+ T cells vs C1D1 baseline); assay type: in vivo, human; conditions: E8RJ cohort, at C1D15, erdafitinib treatment alone; FIG. 4C
# Excerpt: Phase 1b is the dose escalation part of the study wherein two dosing cohorts (Standard Cohorts and Alternative Cohorts) of erdafitinib were explored, while cetrelimab intravenous (IV) dose was fixed. In the Standard Cohorts (DL1, DL2 or DL2A), erdafitinib and cetrelimab start concurrently from Cycle 1 Day 1 (C1D1). In the Alternative Cohorts (DL1B or DL2B), administration of erdafitinib starts on C1D1 but cetrelimab is initiated 1 cycle (4 weeks) later, on Cycle 2 Day 1 (C2D1) (also referred to as a 28-day run-in of erdafitinib).
# For phase 1b, blood for immune cell profiling were collected at four time points (C1D1, C1D15, C2D1 and C3D1). […] Blood samples were subjected to flow cytometry analysis on a real time basis. T cell activation is quantified as fold increase in the proportions of 1) CD38+CD3, CD38+CD4, or CD38+CD8 T cells out of lymphocytes or CD3 T cell populations, and 2) CD38+ cells out of CD4+ or CD8+ T cell populations, compared to the baseline proportion levels at C1D1.
# (§1) Longitudinal blood samples were analyzed from DL2A (E8J cohort: Erda 8 mg+cetrelimab 240 mg), DL2B (E8RJ cohort: Erda 8 mg 28 days run-in +cetrelimab 240 mg), and DL2 (EJ cohort: Erda 8 mg with the potential dose adjustments to 9 mg depending on phosphate levels measured on C1D15+cetrelimab 240 mg) of phase 1b, and blood samples from Arm A and Arm B of phase 2.
# [2] = tested on: CD38+ T cells in the peripheral blood; conditions: Arm A, erdafitinib monotherapy, FIG. 7c
# Description: In Phase 2, two dosing arms are explored: the erdafitinib monotherapy treatment at the starting oral dose of 8 mg (Arm A), or the combination treatment of erdafitinib and cetrelimab (Arm B).
# For phase 1b, blood for immune cell profiling were collected at four time points (C1D1, C1D15, C2D1 and C3D1). For phase 2, blood was collected at six time points (C1D1, C1D15, C2D1, C2D15, C3D1 and C3D15). Blood samples were subjected to flow cytometry analysis on a real time basis. T cell activation is quantified as fold increase in the proportions of 1) CD38+CD3, CD38+CD4, or CD38+CD8 T cells out of lymphocytes or CD3 T cell populations, and 2) CD38+ cells out of CD4+ or CD8+ T cell populations, compared to the baseline proportion levels at C1D1.
# as §1
structure (smiles),measurement,setting,value
"COc1cc(OC)cc(N(CCNC(C)C)c2ccc3ncc(-c4cnn(C)c4)nc3c2)c1 [erdafitinib, N-(3,5-dimethoxyphenyl)-N′-(1-methylethyl)-N-[3-(1-methyl-1H-pyrazol-4-yl)quinoxalin-6-yl]ethane-1,2-diamine]",proportion of CD38+CD8 T cells,[1],dramatically increased
same,extent of increase of proportion of CD38+CD8 T cells,[2]; compared with Arm B,less than that observed in Arm B
same,proportion of CD38+CD8 T cells,[2],increased with time
